In ChEMBL document CHEMBL1124525, “Hexestrol-linked cytotoxic agents: synthesis and binding affinity for estrogen receptors” (J Med Chem, 1989):

Tests used:
[1] = biological target: T1, Estrogen receptor (Rattus norvegicus) (UniProt P06211+Q62986); experiment: Binding affinity to estrogen receptor; format: protein assay
[2] = biological target: T1, Estrogen receptor (Rattus norvegicus); experiment: Relative binding affinity for estrogen receptor; format: protein assay

Row | relative binding affinity (RBA) [1] | relative binding affinity (RBA) [2] | Structure (SMILES)
1 | 1 |  | CC[C@@](C)(c1ccc(O)cc1)[C@H](CCCCOCCOCCCl)c1ccc(O)cc1 (relative stereo)
2 | 0.3 |  | CC[C@@](C)(c1ccc(O)cc1)[C@H](CCCCOCCCl)c1ccc(O)cc1 (relative stereo)
3 | 1 |  | CC[C@@](C)(c1ccc(O)cc1)[C@H](CCCCBr)c1ccc(O)cc1 (relative stereo)
4 | 1 |  | CC[C@@](C)(c1ccc(O)cc1)[C@H](CCCCOCCOCCO)c1ccc(O)cc1
5 | 0.2 |  | CC[C@@](C)(c1ccc(O)cc1)[C@H](CCCC(=O)OC)c1ccc(O)cc1
6 | 1 |  | C=CCCC[C@H](c1ccc(O)cc1)[C@@](C)(CC)c1ccc(O)cc1 (relative stereo)
7 | 0.1 |  | CC[C@@](C)(c1cc(Br)c(O)c(Br)c1)[C@H](CCCCO)c1ccc(O)c(Br)c1
8 | 1 |  | CC[C@@](C)(c1ccc(O)cc1)[C@H](CCCCOCCO)c1ccc(O)cc1
9 | 1 |  | CC[C@@](C)(c1ccc(O)cc1)[C@H](CCCCNC(=O)N(CCCl)N=O)c1ccc(O)cc1
10 | 0.9 |  | CC[C@@](C)(c1ccc(O)cc1)[C@H](CCCC(N)=O)c1ccc(O)cc1
11 | 1 |  | CC[C@@](C)(c1ccc(O)cc1)[C@H](CCCCC=O)c1ccc(O)cc1
12 | 1 |  | CC[C@@](C)(c1ccc(O)cc1)[C@H](CCCCOC(C)=O)c1ccc(O)cc1
13 | 1 |  | CC[C@@](C)(c1ccc(O)cc1)[C@H](CCCCOCCOCCOCCO)c1ccc(O)cc1
14 | 0.1 |  | CC[C@@](C)(c1ccc(O)cc1)[C@H](CCCC(=O)NCCO)c1ccc(O)cc1
15 | 1 |  | CC[C@@](C)(c1ccc(O)cc1)[C@H](CCCC=O)c1ccc(O)cc1
16 | 0.2 |  | CC[C@@](C)(c1ccc(O)cc1)[C@H](CCCC(=O)N(CCO)CCO)c1ccc(O)cc1
17 | 0.5 |  | CC[C@@](C)(c1ccc(O)cc1)[C@H](CCCCOCCOCCOCCCl)c1ccc(O)cc1 (relative stereo)
18 | 1 |  | CCCC[C@H](c1ccc(O)cc1)[C@@](C)(CC)c1ccc(O)cc1 (relative stereo)
19 | 1.5 |  | CC[C@@](C)(c1ccc(O)cc1)[C@H](CCCCO)c1ccc(O)cc1 (relative stereo)
20 | 0.4 |  | CC[C@@](C)(c1ccc(O)cc1)[C@H](CCCCSCCO)c1ccc(O)cc1 (relative stereo)
21 |  | 0.1 | CC[C@@](C)(c1ccc(O)cc1)[C@H](CCCC(=O)O)c1ccc(O)cc1
22 | 1.5 |  | CC[C@@](C)(c1ccc(O)cc1)[C@H](CCCCCl)c1ccc(O)cc1 (relative stereo)
23 | 2 |  | CC[C@@](C)(c1ccc(O)cc1)[C@H](CCCCN)c1ccc(O)cc1 (relative stereo)
24 | 0.9 |  | CC[C@@](C)(c1ccc(O)cc1)[C@H](CCCCN(CCO)CCO)c1ccc(O)cc1 (relative stereo)
25 | 0.2 |  | CC[C@@](C)(c1ccc(O)cc1)[C@H](CCCCI)c1ccc(O)cc1 (relative stereo)
26 | 0.3 |  | CC[C@@](C)(c1ccc(O)cc1)[C@H](CCCCOS(C)(=O)=O)c1ccc(O)cc1
27 | 0.2 |  | CC[C@@](C)(c1ccc(O)cc1)[C@H](CCCC(=O)NC)c1ccc(O)cc1
28 | 0.2 |  | CCSCCCCC(c1ccc(O)cc1)C(C)(CC)c1ccc(O)cc1 (stereo unspecified)

Row | Structure (SMILES) | relative binding affinity (RBA) [1] | relative binding affinity (RBA) [2]
29 | CC[C@](C)(c1ccc(O)cc1)[C@H](CCCCN(CCCl)CCCl)c1ccc(O)cc1 (relative stereo) | 2.5 | 
30 | CC[C@@](C)(c1ccc(O)cc1)[C@H](CCCCN1CCCOP1(=O)N(CCCl)CCCl)c1ccc(O)cc1 (relative stereo) | 1 | 
31 | CC[C@](C)(c1ccc(O)cc1)[C@H](CCCCNCCCl)c1ccc(O)cc1 (relative stereo) | 1 | 
